The text below walks through data of paper PMC5494507, “γ‐Secretase inhibitors in cancer clinical trials are pharmacologically and functionally distinct” (EMBO Molecular Medicine, 2017).

One test relates to cNOTCH4sub. The experiment in a line: Cell-based γ-secretase cleavage assay, cNOTCH4sub in H4 cells (Aβ-like peptide ELISA). The note with it: Aβ-like peptide in media, GSI overnight. Also noted: species or system human. The procedure: (§1) Using these cell‐based γ‐secretase cleavage assays, we systematically investigated the substrate inhibition profile of BMS‐906024, MK‐0752, PF‐308414, RO4929097, Semagacestat, and DAPT. We treated H4 cells stably expressing cNOTCH1‐4sub with 4 pM to 10 μM of GSIs (Fig 5A and Table 2) and measured the Aβ‐like peptide secreted into the media.
(§2) For the cell‐based assay, all substrates contain a human NOTCH4 signal peptide sequence ([…]), amyloid β peptide (Aβ1–25/K16A) epitope tag followed by the juxtamembrane region (JMD) of the given substrate and a FLAG tag ([…]) at the COOH‐terminal. K16A mutant was created to decrease potential α‐secretase cleavage. The cDNAs were generated by gene synthesis conducted by Genscript. A schematic representation of the substrates is provided in Fig 4A, and sequences of the cDNAs and the proteins are provided in Appendix Fig S6. For clarity, these substrates are referred to as cell‐based assay substrates (e.g., NOTCH1 is cNOTCH1sub). Substrate cDNAs were cloned into pCDNA3.1 (Invitrogen, Carlsbad, CA, USA) for expression in H4 cells (ATCC, Manassas, VA).
(§3) H4 cells were cultured in Opti‐mem media (Thermo‐Fisher) supplemented with Hyclone 6% fetal bovine serum (GE, Logan, Utah, USA) and 1% penicillin/streptomycin (Life Technologies, Grand Island, NY, USA). pCDNA3.1 plasmids containing the substrate cDNAs were transfected into H4 cells using FuGENE HD reagent (Madison, WI, USA). Stable cell lines were established using G418 selection. […] Cells and conditioned media were used for WB, IP, and ELISA.
(§4) Sandwich ELISAs used for Aβ detection were performed as previously described (Murphy et al, 1999; Ran et al, 2014). Briefly, Aβ and Aβ‐like peptides in conditioned media were captured with Ab5 antibody and detected with horseradish peroxidase labeled mAb 4G8 (Biolegend). Synthetic Aβ1‐40 was used as standard. All ELISAs were developed with TMB substrate (KPL, Gaithersburg, Maryland, USA). Bis‐Tris precast gels (Biorad, Hercules, CA, USA) were used for all SDS–PAGE. Monoclonal anti‐FLAG M2 antibody (Sigma) and Aβ1‐16 antibody 6E10 (Covance) were used for Western blotting at 1:1,000 dilution. Anti‐CD74 In‐1 antibody (BD Bioscience, San Jose, CA, USA) was used for A20 cell lysate Western blotting at dilution of 1:1,000. MDA‐MB‐231 cell extracts were prepared by lysing cells in RIPA buffer containing protease and phosphatase inhibitors. The lysates were kept on ice for 30 min and vortexed every 10 min, and then centrifuged at 4°C for 10 min at 1,000 g. The supernatants were collected, and protein concentrations were determined by Bradford Assay. Pan‐NOTCH1 antibody (C‐20) (Santa Cruz Biotechnology) and cleaved NOTCH1 (Val1744) antibody ([…]) were used at 1:500 and 1:100 dilution in the test of endogenous NOTCH1 inhibition with β‐actin expression used as loading control. β‐actin antibody was used at 1:1,000 dilution (Sigma). Band intensities normalized for actin using densitometry analysis with ImageJ Software (NIH, USA).

The subject of the next test is cNOTCH1sub. The test can be described thus: Cell-based γ-secretase cleavage assay, cNOTCH1sub in H4 cells (Aβ-like peptide ELISA). Also noted: species or system human. The note with it: Aβ-like peptide in media, GSI overnight. How it is done: as §1, §2, §3, §4
A general note: An ELISA detects its analyte on a solid surface through an enzyme-linked reagent.

In another test the test system is SPPL2a, SPPL2b, and SPP. The experiment in a line: Cell-based SPPLs cleavage assay, HEK 293t cells co-transfected with FBA and SPPLs (ELISA). The conditions noted are these: 1 μM, HEK 293t co-transfected with SPPLs and FBA. How it is done:
It is known that SPP/SPPLs can be inhibited by select GSIs (Ran et al, 2015). Here, we tested the effect of various GSIs on the SPP/SPPL family members SPPL2a, SPPL2b, and SPP. We co‐transfected SPPLs with the BRI2 based chimeric SPP/SPPL substrate that we have referred to as FBA into HEK 293t cells. SPPL‐specific inhibitor (ZLL)2‐ketone was used as positive control. DAPT was not tested here as we and others have previously reported it had no effect on SPP activity at concentration up to 100 μM (Weihofen et al, 2003). […] Dose responses of BMS‐906024, RO4929097, and PF‐3084014 were performed with a similar strategy, but a stable SPPL2b/FBA overexpressing HEK 293 cell line was used instead of transient transfection (Fig 8B). […] Table 3 compares the GSIs’ potencies on γ‐secretase and SPPL2b. The average of IC50s on cNOTCH1sub, cNOTCH2sub, cNOTCH4sub, and APP was used as the GSI's potency on γ‐secretase.
SPPL2a, SPPL2b, SPP, and chimeric substrate FBA were generated as previously described (Ran et al, 2015). A20 cells (TIB‐208; ATCC, Manassas, VA, USA) were cultured in RPMI‐1640 medium (ATCC) supplied with 10% fetal bovine serum, 1% penicillin/streptomycin, and 0.05 mM 2‐mercaptoethanol (Life Technologies). Various concentrations of GSIs and (ZLL)2‐ketone as indicated in figures were applied to transfected HEK 293t cells at 70–90% confluence or A20 cells at a density of 5 × 10^5 cells/ml with fresh media in 48‐well format for 16 h. Cells and conditioned media were used for WB, IP, and ELISA.
as §4

A further test deals with cNOTCH1‐4sub. The test can be described thus: Average of cell-based IC50s on cNOTCH1-4sub in H4 cells. The conditions noted are these: read-out: Average IC50s of each GSI on cNOTCH1‐4sub. The arrangement: species or system human. The procedure: as §1, §2, §3, §4
The subject of the next test is Aβ40. Also noted: method as in ref Appendix Table S1 (Gavai et al, 2015; Dovey et al, 2001; Cook et al, 2010; Krop et al, 2012; Wei et al, 2010; Luistro et al, 2009; Mitani et al, 2012). The note with it: ref Appendix Table S1 (Gavai et al, 2015; Dovey et al, 2001; Cook et al, 2010; Krop et al, 2012; Wei et al, 2010; Luistro et al, 2009; Mitani et al, 2012); read-out: Reported IC50s Aβ40; cited from earlier work.

In a further test the test system is cAPPC100sub. The test can be described thus: Cell-based γ-secretase cleavage assay, cAPPC100sub stably overexpressing cells (Aβ ELISA). The note with it: for low-dose potentiation of cleavage, cAPPC100sub: cAPPC100sub overexpressing cells.
Excerpt: We next tested all GSIs on cAPPC100sub and full‐length APP stably overexpressing cells. […] The low‐dose potentiation of γ‐secretase cleavage was further mechanistically probed using in vitro assays with recombinant substrates and IP‐MS.
as §2, §3, §4

The next test has as its target cNOTCH2sub (Homo sapiens, UniProt P49768). The test can be described thus: Cell-based γ-secretase cleavage assay, cNOTCH2sub in H4 cells (Aβ-like peptide ELISA). The note with it: rank among the six GSIs, number in brackets. How it is done:
as §1, §2, §3, §4

Another test has as its system cNOTCH3sub. The experiment in a line: Cell-based γ-secretase cleavage assay, cNOTCH3sub in H4 cells (Aβ-like peptide ELISA). Also noted: species or system human. How it is done: as §1, §2, §3, §4
Setting [1] is: stably overexpressing cells, Aβ ELISA, read-out: IC50 cC100sub.
The mark [2] stands for this setting: Aβ-like peptide in media, GSI overnight, read-out: IC50 cNOTCH3sub.
The mark [3] stands for this setting: value in parentheses, read-out: IC50 cC100sub, from curves excluding the Aβ level > 120%.
Where [4] appears, read: value in parentheses, read-out: IC50 cNOTCH3sub, from curves excluding the Aβ level > 120%.

Molecules are shown by their SMILES. Where two headings read alike, the source gives them in different places.

For the compound `CN1C(=O)[C@@H](NC(=O)[C@H](CCC(F)(F)F)[C@H](CCC(F)(F)F)C(N)=O)N=C(c2ccccc2)c2ccccc21` [BMS‐906024], the IC50 in the test on cNOTCH4sub is 0.71 nM; in the test on cNOTCH1sub, 0.29 nM; in the test on cNOTCH1‐4sub, 0.57 nM; with Aβ40 it was 1.6 nM; with cAPPC100sub (setting [1]) it was 1.46 nM; in the test on cNOTCH3sub (setting [2]), 1.14 nM. The “SPPLs‐catalyzed cleavage of FBA substrate” value (“SPPLs‐catalyzed cleavage” below) in the test on SPPL2a, SPPL2b, and SPP is “efficiently inhibited”. For the same compound, the “increase of Aβ production from the cAPPC100sub” value in the test with cAPPC100sub (1–4 pM BMS‐906024) is given as ~ 1.5 fold. The “rank order of inhibition of cNOTCH2sub” value at cNOTCH2sub was “[2]”.
As to `O=C(O)CC[C@H]1CC[C@@](c2cc(F)ccc2F)(S(=O)(=O)c2ccc(Cl)cc2)CC1` [MK‐0752], the IC50 in the test on cNOTCH4sub was 191 nM; in the test with cNOTCH1sub, 87.4 nM; with Aβ40 it was 5 nM; in the test with cAPPC100sub (setting [1]), 336 nM; with cAPPC100sub (setting [3]) it was 154 nM; in the test with cNOTCH3sub (setting [2]), 370 nM. Further, the IC50 with cNOTCH3sub (setting [4]) stood at 194 nM. For the same compound, the “SPPLs‐catalyzed cleavage” value in the test on SPPL2a, SPPL2b, and SPP was “did not show significant inhibition”. In addition, the “low-dose potentiation of cleavage, cAPPC100sub” value (from here on “low-dose potentiation”) in the test on cAPPC100sub is “low‐dose potentiation of cleavage was observed”. Further, the “rank order of inhibition of cNOTCH2sub” value on cNOTCH2sub was “[5]”. For the same compound, the “effect on cNOTCH3sub cleavage at low concentrations” value (“effect on cNOTCH3sub cleavage” below) in the test on cNOTCH3sub is listed as “increases cNOTCH3sub cleavage at low doses”.
In the case of `CCC[C@H](N[C@H]1CCc2cc(F)cc(F)c2C1)C(=O)Nc1cn(C(C)(C)CNCC(C)(C)C)cn1` [PF‐3084014], the IC50 in the test on cNOTCH4sub was 0.81 nM; in the test on cNOTCH1sub, 0.6 nM; with cNOTCH1‐4sub it was 0.66 nM; with Aβ40 it was 6.2 nM; with cAPPC100sub (setting [1]), 2.47 nM; with cAPPC100sub (setting [3]), 1.34 nM. In addition, the IC50 with cNOTCH3sub (setting [2]) was 1.21 nM. Also, in the test on SPPL2a, SPPL2b, and SPP, the “SPPLs‐catalyzed cleavage” value is “mild inhibition”. Besides, the “rank order of inhibition of cNOTCH2sub” value on cNOTCH2sub was “[1]”. Moreover, the “effect on cNOTCH3sub cleavage” value in the test on cNOTCH3sub was “potentiates cleavage of NOTCH3”.
`CC(C)(C(=O)NCC(F)(F)C(F)(F)F)C(=O)N[C@@H]1C(=O)Nc2ccccc2-c2ccccc21` [RO4929097]: the IC50 was 3.4 nM in the test with cNOTCH4sub; 0.46 nM in the test with cNOTCH1sub; 6.48 nM in the test on cNOTCH1‐4sub; 14 nM with Aβ40; 26.6 nM with cAPPC100sub (setting [1]); 24 nM with cAPPC100sub (setting [3]). The IC50 in the test with cNOTCH3sub (setting [2]) was 19.8 nM; in the test on cNOTCH3sub (setting [4]) it was 6.93 nM. Further, in the test with SPPL2a, SPPL2b, and SPP, the “SPPLs‐catalyzed cleavage” value is reported as “efficiently inhibited”. Besides, the “low-dose potentiation” value with cAPPC100sub was “low‐dose potentiation of cleavage was observed”. Also, the “rank order of inhibition of cNOTCH2sub” value at cNOTCH2sub is “[3]”. Moreover, the “concentration that significantly increases cleavage of the cNOTCH3sub” value in the test on cNOTCH3sub (potentiation at low inhibitor concentration) is 0.5 to 2.5 nM.
In the case of `CC(C)[C@H](O)C(=O)N[C@@H](C)C(=O)N[C@@H]1C(=O)N(C)CCc2ccccc21` [Semagacestat], the IC50 with cNOTCH4sub is 46 nM; in the test with cNOTCH1sub it was 7.02 nM; with cNOTCH1‐4sub, 121 nM; with Aβ40, 12.1 nM; with cAPPC100sub (setting [1]), 175 nM; in the test with cAPPC100sub (setting [3]), 105 nM. For the same compound, the IC50 in the test with cNOTCH3sub (setting [2]) was found to be 391 nM; in the test with cNOTCH3sub (setting [4]), 129 nM. Also, in the test with SPPL2a, SPPL2b, and SPP, the “SPPLs‐catalyzed cleavage” value is “did not show significant inhibition”. Moreover, in the test on cAPPC100sub, the “low-dose potentiation” value was “low‐dose potentiation of cleavage was observed”. Further, on cNOTCH2sub, the “rank order of inhibition of cNOTCH2sub” value is “[4]”. Moreover, the “effect on cNOTCH3sub cleavage” value in the test on cNOTCH3sub is given as “potentiate”.
